In patent publication US20160271209A1, “ANTIBACTERIAL COMPOSITION” (ECO FRIENDLY INSTITUTE LIMITED., priority 2012, published 2016):

How the values were obtained:
[1] = tested on: Porphyromonas gingivalis W83 strain; experiment: Antibacterial activity against Porphyromonas gingivalis (2): growth inhibition effect by turbidity at 600 nm; type: cell-based; settings: FIG. 2, 48 hours culture
Method: The Porphyromonas gingivalis W83 strain, a causative bacterium of periodontal disease, was cultured to the logarithmic phase in the brain heart infusion medium containing hemin (5 mg/L) and metidione (1 mg/L). The culture medium was diluted with a citrate buffer containing 0.8% NaCl to adjust the number of bacteria (10^6 CFU/mL). Test solutions were prepared by dilution with sterilized purified water so as to contain the 5-fold concentrate of Prunus mume extract (10 mg/mL, 50 mg/mL as the extract before concentration), nisin (20 μg/mL), or the 5-fold concentrate of Prunus mume extract (10 mg/mL, 50 mg/mL as the extract before concentration)+nisin ([…]), and serially diluted 2-fold on a 96-well plate. To each well (containing 50 μL of test solution), the brain heart infusion medium (140 μL) containing hemin (5 mg/L) and metidione (1 mg/L) and the cell suspension (10 μL) were added. After culture for 48 hours, turbidity of the culture was measured at 600 nm. For evaluation, growth inhibition effect (%) was calculated according to the equation: Growth inhibition effect (%)=(1−(Turbidity observed with test solution)/(Turbidity observed with sterilized water))×100.

[2] = tested on: Porphyromonas gingivalis ATCC 33277 strain; experiment: Antibacterial activity against Porphyromonas gingivalis (1): 1 minute contact, colony count; type: cell-based
Method: The Porphyromonas gingivalis ATCC 33277 strain, a causative bacterium of periodontal disease, was cultured to the logarithmic phase in Enriched Tryptic Soy Broth (e-TSB). The culture medium was diluted with a citrate buffer (pH 4.5) containing 0.8% NaCl to adjust the number of bacteria (10^6 CFU/mL). Test solutions were prepared by dilution with sterilized purified water so as to contain the 5-fold concentrate of Prunus mume extract (3 mg/mL, 15 mg/mL as the extract before concentration), nisin (150 μg/mL), or nisin (150 μg/mL)+5-fold concentrate of Prunus mume extract (3 mg/mL, 15 mg/mL as the extract before concentration). The diluted culture medium (100 μL) was added to each test solution (5 mL). After contact of the bacterium with the test solution for 1 minute at room temperature, the mixture (100 μL) was added to and mixed with the e-TSB medium (5 mL), and the mixture (100 μL) was immediately plated on a blood agar medium under an anaerobic condition. The bacterium was cultured for 5 days under an anaerobic condition, and then the number of the colonies formed on the plate was counted. The results were as shown in Table 1 mentioned below and FIG. 1. In Table 1, “CFU” means colony-forming unit (the same shall apply to the following descriptions).

[3] = tested on: Gram-positive bacteria including acetic acid bacteria; settings: background statement; cited from earlier work
[4] = tested on: Escherichia coli NBRC 3301 strain; experiment: Antibacterial activity against Escherichia coli (1): contact for days, colony count; type: cell-based; settings: Table 2, nisin 10 μg/mL
Method: The Escherichia coli NBRC 3301 strain, which is a Gram-negative bacterium, was cultured to the logarithmic phase in Tryptic Soy Broth (TSB). The culture medium was diluted with sterilized purified water to adjust the number of bacteria (10^3 to 10^4 CFU/mL). Test solutions were prepared by dilution with sterilized purified water so as to contain nisin (10 μg/mL), the 5-fold concentrate of Prunus mume extract (3 mg/mL, 15 mg/mL as the extract before concentration), or nisin (10 μg/mL)+5-fold concentrate of Prunus mume extract (3 mg/mL, 15 mg/mL as the extract before concentration). The diluted culture medium (10 μL) was added to each test solution (1 mL). After contact of the bacterium with the test solution at room temperature for a predetermined number of days (0 to 7 days), the mixture (100 μL) was plated on TBS agar medium. The bacterium was cultured for 48 hours, and then the number of the colonies formed on the plate was counted. The results are shown in Tables 2 and 3 mentioned below and FIGS. 3 and 4. In Tables 2 and 3, “D+n” means the number of days (n days) for the contact of the diluted culture medium and the test solution (the same shall apply to the following descriptions).

## nisin A
[1]; 2-fold serial dilution, overall
  growth inhibition effect (in words): extremely low
[1]; at the 1/32 concentration (32-fold dilution)
  growth inhibition effect (in words): did not show any growth inhibition effect at all
[2]; Example 1, Table 1 and FIG. 1
  antibacterial activity against Porphyromonas gingivalis (in words): did not show any antibacterial activity at all
[2]; after contact for 1 minute at room temperature, nisin 150 μg/mL, Prunus mume extract 3 mg/mL (5-fold concentrate)
  Number of bacteria, After contact: 1.0 × 10^6 CFU/mL
[2]; before contact, nisin 150 μg/mL, Prunus mume extract 3 mg/mL (5-fold concentrate)
  Number of bacteria, Before contact: 1.0 × 10^6 CFU/mL
[3]
  concentration showing growth-suppressing effect: about 1 ppb
[4]; 0 days contact
  Number of bacteria, D + 0: 4,540 CFU/mL
[4]; 1 day contact
  Number of bacteria, D + 1: 1,740 CFU/mL
[4]; 3 days contact
  Number of bacteria, D + 3: 1,430 CFU/mL
[4]; 7 days contact
  Number of bacteria, D + 7: 290 CFU/mL
